Measurements from ChEMBL document CHEMBL3400018, “One-pot catalyst free synthesis of novel kojic acid tagged 2-aryl/alkyl substituted-4H-chromenes and evaluation of their antimicrobial and anti-biofilm activities” (Bioorg Med Chem Lett, 2015).
Converted amounts (≈) assume the structure as drawn. The source made the active and inactive calls. No cut-off for these calls is given here.

How the values were obtained:
Bacillus subtilis [1] = experiment: Antimicrobial activity against Bacillus subtilis MTCC 121 assessed as inhibition of biofilm formation after 24 hrs; assay type: functional, organism-based; conditions: MTCC 121, 24 h
Escherichia coli [2] = experiment: Bactericidal activity against Escherichia coli MTCC 739 after 24 hrs by Mueller Hinton agar plate assay; assay type: functional; conditions: MTCC 739, 24 h
Escherichia coli [3] = experiment: Antimicrobial activity against Escherichia coli MTCC 739 after 24 hrs by well diffusion method; assay type: functional; conditions: MTCC 739, 24 h
Raoultella planticola = experiment: Antimicrobial activity against Klebsiella planticola MTCC 530 after 24 hrs by well diffusion method; assay type: functional; conditions: MTCC 530, 24 h
Pseudomonas aeruginosa = experiment: Antimicrobial activity against Pseudomonas aeruginosa MTCC 2453 after 24 hrs by well diffusion method; assay type: functional; conditions: MTCC 2453, 24 h
Bacillus subtilis [4] = experiment: Antimicrobial activity against Bacillus subtilis MTCC 121 after 24 hrs by well diffusion method; assay type: functional; conditions: MTCC 121, 24 h
Escherichia coli [5] = experiment: Antimicrobial activity against Escherichia coli MTCC 739 assessed as inhibition of biofilm formation after 24 hrs; assay type: functional, organism-based; conditions: MTCC 739, 24 h
Candida albicans = experiment: Antimicrobial activity against Candida albicans MTCC 3017 after 24 hrs by well diffusion method; assay type: functional, organism-based
Staphylococcus aureus [6] = experiment: Bactericidal activity against Staphylococcus aureus MLS-16 MTCC 2940 after 24 hrs by Mueller Hinton agar plate assay; assay type: functional; conditions: MLS-16, 24 h
Staphylococcus aureus [7] = experiment: Antimicrobial activity against Staphylococcus aureus MLS-16 MTCC 2940 assessed as inhibition of biofilm formation after 24 hrs; assay type: functional, organism-based; conditions: MLS-16, 24 h
Staphylococcus aureus [8] = experiment: Antimicrobial activity against Staphylococcus aureus MLS-16 MTCC 2940 after 24 hrs by well diffusion method; assay type: functional; conditions: MLS-16 MTCC 2940, 24 h
Micrococcus luteus = experiment: Antimicrobial activity against Micrococcus luteus MTCC 2470 after 24 hrs by well diffusion method; assay type: functional; conditions: MTCC 2470, 24 h
Bacillus subtilis [9] = experiment: Bactericidal activity against Bacillus subtilis MTCC 121 after 24 hrs by Mueller Hinton agar plate assay; assay type: functional; conditions: MTCC 121, 24 h

Structure (SMILES)	IC50 (Bacillus subtilis [1]) [µg/mL]	MBC (Escherichia coli [2]) [µg/mL]	MIC (Escherichia coli [3]) [µg/mL]	MIC (Raoultella planticola) [µg/mL]	MIC (Pseudomonas aeruginosa) [µg/mL]	MIC (Bacillus subtilis [4]) [µg/mL]	IC50 (Escherichia coli [5]) [µg/mL]	MIC (Candida albicans)	MBC (Staphylococcus aureus [6]) [µg/mL]	IC50 (Staphylococcus aureus [7]) [µg/mL]	MIC (Staphylococcus aureus [8]) [µg/mL]	MIC (Micrococcus luteus) [µg/mL]	MBC (Bacillus subtilis [9]) [µg/mL]
O=c1cc(CO)oc(C2C=C(c3ccccc3)Oc3ccccc32)c1O (configuration not stated)	3.4 (≈ 9.76 µM)	7.8 (≈ 22.4 µM)	7.8 (≈ 22.4 µM)	> 125	> 125	3.9 (≈ 11.2 µM)	5.2 (≈ 14.9 µM)	inactive	15.6 (≈ 44.8 µM)	8.3 (≈ 23.8 µM)	7.8 (≈ 22.4 µM)	> 125	7.8 (≈ 22.4 µM)
O=c1cc(CO)oc(C2C=C(c3ccccc3Br)Oc3ccccc32)c1O (configuration not stated)	–	–	> 125	> 125	> 125	> 125	–	inactive	–	–	> 125	> 125	–
CC[C@H]1OC(=O)[C@H](C)[C@@H](O[C@H]2C[C@@](C)(OC)[C@@H](O)[C@H](C)O2)[C@H](C)[C@@H](O[C@@H]2O[C@H](C)C[C@H](N(C)C)[C@H]2O)[C@](C)(O)C[C@@H](C)C(=O)[C@H](C)[C@@H](O)[C@]1(C)O [ERYTHROMYCIN]	0.19 (≈ 0.259 µM)	–	–	–	–	–	0.31 (≈ 0.422 µM)	–	–	0.23 (≈ 0.313 µM)	–	–	–
O=c1cc(CO)oc(C2C=C(c3ccc4c(c3)OCO4)Oc3ccccc32)c1O (configuration not stated)	8.1 (≈ 20.6 µM)	31.2 (≈ 79.5 µM)	15.6 (≈ 39.8 µM)	> 125	> 125	7.8 (≈ 19.9 µM)	17.8 (≈ 45.4 µM)	inactive	> 125	> 125	> 125	> 125	15.6 (≈ 39.8 µM)
O=c1cc(CO)oc(C2C=C(c3ccccc3)Oc3c(Cl)cc(Br)cc32)c1O (configuration not stated)	–	–	> 125	> 125	> 125	> 125	–	inactive	–	–	> 125	> 125	–
CCC1=CC(c2oc(CO)cc(=O)c2O)c2ccccc2O1 (configuration not stated)	–	–	> 125	> 125	> 125	> 125	–	inactive	–	–	> 125	> 125	–
O=c1cc(CO)oc(C2C=C(c3cc(F)cc(F)c3)Oc3ccccc32)c1O (configuration not stated)	–	–	> 125	> 125	> 125	> 125	–	inactive	–	–	> 125	> 125	–
CC1=CC(c2oc(CO)cc(=O)c2O)c2ccccc2O1 (configuration not stated)	–	–	> 125	> 125	> 125	> 125	–	inactive	–	–	> 125	> 125	–
O=c1cc(CO)oc(C2C=C(c3ccc(Cl)cc3)Oc3ccccc32)c1O (configuration not stated)	3.6 (≈ 9.4 µM)	> 125	> 125	> 125	> 125	7.8 (≈ 20.4 µM)	> 125	inactive	15.6 (≈ 40.8 µM)	9.1 (≈ 23.8 µM)	15.6 (≈ 40.8 µM)	> 125	7.8 (≈ 20.4 µM)
O=c1cc(CO)oc(C2C=C(c3ccccc3)Oc3ccc(Cl)cc32)c1O (configuration not stated)	–	–	> 125	> 125	> 125	> 125	–	inactive	–	–	> 125	> 125	–
O=c1cc(CO)oc(C2C=C(c3cccc(O)c3)Oc3ccccc32)c1O (configuration not stated)	–	–	> 125	> 125	> 125	> 125	–	inactive	–	–	> 125	> 125	–
O=c1cc(CO)oc(C2C=C(c3cccs3)Oc3ccccc32)c1O (configuration not stated)	4.6 (≈ 13 µM)	31.2 (≈ 88 µM)	15.6 (≈ 44 µM)	> 125	> 125	7.8 (≈ 22 µM)	18.2 (≈ 51.4 µM)	inactive	15.6 (≈ 44 µM)	8.8 (≈ 24.8 µM)	7.8 (≈ 22 µM)	> 125	7.8 (≈ 22 µM)
O=c1cc(CO)oc(C2C=C(c3ccc4ccccc4c3)Oc3ccccc32)c1O (configuration not stated)	–	–	> 125	> 125	> 125	> 125	–	inactive	–	–	> 125	> 125	–
O=C(O)c1cn(C2CC2)c2cc(N3CCNCC3)c(F)cc2c1=O [CIPROFLOXACIN]	–	1.9 (≈ 5.73 µM)	0.9 (≈ 2.72 µM)	0.9 (≈ 2.72 µM)	0.9 (≈ 2.72 µM)	0.9 (≈ 2.72 µM)	–	inactive	1.9 (≈ 5.73 µM)	–	0.9 (≈ 2.72 µM)	0.9 (≈ 2.72 µM)	0.9 (≈ 2.72 µM)
COc1ccc(C2=CC(c3oc(CO)cc(=O)c3O)c3ccccc3O2)cc1 (configuration not stated)	10.2 (≈ 27 µM)	7.8 (≈ 20.6 µM)	7.8 (≈ 20.6 µM)	> 125	> 125	7.8 (≈ 20.6 µM)	6.1 (≈ 16.1 µM)	inactive	31.2 (≈ 82.5 µM)	15.4 (≈ 40.7 µM)	15.6 (≈ 41.2 µM)	> 125	15.6 (≈ 41.2 µM)
O=c1cc(CO)oc(C2C=C(c3ccccc3)Oc3ccc(Br)cc32)c1O (configuration not stated)	–	–	> 125	> 125	> 125	> 125	–	inactive	–	–	> 125	> 125	–
CC(C)CC1=CC(c2oc(CO)cc(=O)c2O)c2ccccc2O1 (configuration not stated)	11.3 (≈ 34.4 µM)	> 125	> 125	> 125	> 125	7.8 (≈ 23.8 µM)	> 125	inactive	15.6 (≈ 47.5 µM)	9.2 (≈ 28 µM)	7.8 (≈ 23.8 µM)	> 125	15.6 (≈ 47.5 µM)
Cc1ccc(C2=CC(c3oc(CO)cc(=O)c3O)c3ccccc3O2)cc1 (configuration not stated)	20.1 (≈ 55.5 µM)	15.6 (≈ 43 µM)	7.8 (≈ 21.5 µM)	> 125	> 125	15.6 (≈ 43 µM)	9.1 (≈ 25.1 µM)	inactive	31.2 (≈ 86.1 µM)	18.6 (≈ 51.3 µM)	15.6 (≈ 43 µM)	> 125	31.2 (≈ 86.1 µM)
